Source: ChEMBL document CHEMBL1201862, “PubChem BioAssay data set” (2004)
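The compound was tested at five concentrations on cells cultured in 96-well plates, with a 48-hour exposure period. Here, GI50 denotes the concentration required for 50% inhibition of growth.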 Active and inactive are the calls of the source. Cut-off read from the data, not from the text of the source: active = GI50 up to about 1.1 µM and inactive = higher.

Columns and labels:
Assay in all cases: inhibition of tumour cell growth, NCI panel, 48 h
SK-MEL-5 = test system: SK-MEL-5
LOX IMVI = test system: LOX IMVI
IGROV-1 = test system: IGROV-1
MOLT-4 = test system: MOLT-4
NCI-H460 = test system: NCI-H460
EKVX = test system: EKVX
OVCAR-5 = test system: OVCAR-5
HL-60 = test system: HL-60
MDA-MB-435 = test system: MDA-MB-435
SK-MEL-28 = test system: SK-MEL-28
OVCAR-3 = test system: OVCAR-3
SNB-75 = test system: SNB-75
K562 = test system: K562
RPMI-8226 = test system: RPMI-8226
SR = test system: SR
SF-295 = test system: SF-295
HCT-116 = test system: HCT-116
TK-10 = test system: TK-10
Hs-578T = test system: Hs-578T
OVCAR-8 = test system: OVCAR-8
M14 = test system: M14
NCI-H23 = test system: NCI-H23
NCI-H226 = test system: NCI-H226
DU-145 = test system: DU-145
MDA-N = test system: MDA-N
CCRF-CEM = test system: CCRF-CEM
PC-3 = test system: PC-3
786-0 = test system: 786-0
HT-29 = test system: HT-29
COLO 205 = test system: COLO 205
BT-549 = test system: BT-549
UACC-62 = test system: UACC-62
HOP-92 = test system: HOP-92
MDA-MB-231 = test system: MDA-MB-231
U-251 = test system: U-251
NCI/ADR-RES = test system: NCI/ADR-RES
T47D = test system: T47D
UACC-257 = test system: UACC-257
CAKI-1 = test system: CAKI-1
SF-539 = test system: SF-539
SN12C = test system: SN12C
SF-268 = test system: SF-268
UO-31 = test system: UO-31
SW-620 = test system: SW-620
SNB-19 = test system: SNB-19
SK-MEL-2 = test system: SK-MEL-2
A549 = test system: A549
SK-OV-3 = test system: SK-OV-3
HOP-62 = test system: HOP-62
MCF7 = test system: MCF7
HCT-15 = test system: HCT-15
A498 = test system: A498
ACHN = test system: ACHN
KM12 = test system: KM12
OVCAR-4 = test system: OVCAR-4
HCC 2998 = test system: HCC 2998
Malme-3M = test system: Malme-3M
NCI-H522 = test system: NCI-H522

Structure (SMILES): O=c1c2ccccc2nc2[nH][nH]c(=S)n12
- GI50 (SK-MEL-5): > 100 µM (inactive)
- GI50 (LOX IMVI): > 100 µM (inactive)
- GI50 (IGROV-1): > 100 µM (inactive)
- GI50 (MOLT-4): 58.6 µM (inactive)
- GI50 (NCI-H460): > 100 µM (inactive)
- GI50 (EKVX): 83.6 µM (inactive)
- GI50 (OVCAR-5): > 100 µM (inactive)
- GI50 (HL-60): > 100 µM (inactive)
- GI50 (MDA-MB-435): > 100 µM (inactive)
- GI50 (SK-MEL-28): > 100 µM (inactive)
- GI50 (OVCAR-3): > 100 µM (inactive)
- GI50 (SNB-75): 48.4 µM (inactive)
- GI50 (K562): > 100 µM (inactive)
- GI50 (RPMI-8226): > 100 µM (inactive)
- GI50 (SR): > 100 µM (inactive)
- GI50 (SF-295): > 100 µM (inactive)
- GI50 (HCT-116): > 100 µM (inactive)
- GI50 (TK-10): > 100 µM (inactive)
- GI50 (Hs-578T): 43.3 µM (inactive)
- GI50 (OVCAR-8): > 100 µM (inactive)
- GI50 (M14): > 100 µM (inactive)
- GI50 (NCI-H23): > 100 µM (inactive)
- GI50 (NCI-H226): > 100 µM (inactive)
- GI50 (DU-145): > 100 µM (inactive)
- GI50 (MDA-N): > 100 µM (inactive)
- GI50 (CCRF-CEM): > 100 µM (inactive)
- GI50 (PC-3): > 100 µM (inactive)
- GI50 (786-0): > 100 µM (inactive)
- GI50 (HT-29): > 100 µM (inactive)
- GI50 (COLO 205): > 100 µM (inactive)
- GI50 (BT-549): > 100 µM (inactive)
- GI50 (UACC-62): > 100 µM (inactive)
- GI50 (HOP-92): > 100 µM (inactive)
- GI50 (MDA-MB-231): > 100 µM (inactive)
- GI50 (U-251): > 100 µM (inactive)
- GI50 (NCI/ADR-RES): > 100 µM (inactive)
- GI50 (T47D): > 100 µM (inactive)
- GI50 (UACC-257): > 100 µM (inactive)
- GI50 (CAKI-1): > 100 µM (inactive)
- GI50 (SF-539): > 100 µM (inactive)
- GI50 (SN12C): > 100 µM (inactive)
- GI50 (SF-268): > 100 µM (inactive)
- GI50 (UO-31): > 100 µM (inactive)
- GI50 (SW-620): > 100 µM (inactive)
- GI50 (SNB-19): > 100 µM (inactive)
- GI50 (SK-MEL-2): > 100 µM (inactive)
- GI50 (A549): > 100 µM (inactive)
- GI50 (SK-OV-3): > 100 µM (inactive)
- GI50 (HOP-62): > 100 µM (inactive)
- GI50 (MCF7): > 100 µM (inactive)
- GI50 (HCT-15): > 100 µM
- GI50 (A498): > 100 µM (inactive)
- GI50 (ACHN): > 100 µM (inactive)
- GI50 (KM12): > 100 µM (inactive)

Structure (SMILES): CC1(C)C(=O)N=C(N)N1C(=O)OCc1ccccc1
- GI50 (SK-MEL-5): > 100 µM (inactive)
- GI50 (LOX IMVI): > 100 µM (inactive)
- GI50 (IGROV-1): > 100 µM (inactive)
- GI50 (MOLT-4): > 100 µM (inactive)
- GI50 (NCI-H460): > 100 µM (inactive)
- GI50 (EKVX): > 100 µM (inactive)
- GI50 (OVCAR-4): > 100 µM (inactive)
- GI50 (OVCAR-5): > 100 µM (inactive)
- GI50 (HL-60): > 100 µM (inactive)
- GI50 (HCC 2998): > 100 µM (inactive)
- GI50 (MDA-MB-435): > 100 µM (inactive)
- GI50 (SK-MEL-28): > 100 µM (inactive)
- GI50 (OVCAR-3): > 100 µM (inactive)
- GI50 (SNB-75): > 100 µM (inactive)
- GI50 (K562): > 100 µM (inactive)
- GI50 (RPMI-8226): > 100 µM (inactive)
- GI50 (SR): > 100 µM (inactive)
- GI50 (SF-295): > 100 µM (inactive)
- GI50 (HCT-116): > 100 µM (inactive)
- GI50 (TK-10): > 100 µM (inactive)
- GI50 (Hs-578T): > 100 µM (inactive)
- GI50 (OVCAR-8): > 100 µM (inactive)
- GI50 (M14): > 100 µM (inactive)
- GI50 (NCI-H23): > 100 µM (inactive)
- GI50 (Malme-3M): > 100 µM (inactive)
- GI50 (NCI-H226): > 100 µM (inactive)
- GI50 (DU-145): > 100 µM (inactive)
- GI50 (MDA-N): > 100 µM (inactive)
- GI50 (CCRF-CEM): > 100 µM (inactive)
- GI50 (PC-3): > 100 µM (inactive)
- GI50 (786-0): > 100 µM (inactive)
- GI50 (HT-29): > 100 µM (inactive)
- GI50 (COLO 205): > 100 µM (inactive)
- GI50 (BT-549): > 100 µM (inactive)
- GI50 (UACC-62): > 100 µM (inactive)
- GI50 (HOP-92): > 100 µM (inactive)
- GI50 (MDA-MB-231): > 100 µM (inactive)
- GI50 (U-251): > 100 µM (inactive)
- GI50 (NCI/ADR-RES): > 100 µM (inactive)
- GI50 (T47D): > 100 µM (inactive)
- GI50 (UACC-257): > 100 µM (inactive)
- GI50 (CAKI-1): > 100 µM (inactive)
- GI50 (SF-539): > 100 µM (inactive)
- GI50 (SN12C): > 100 µM (inactive)
- GI50 (NCI-H522): > 100 µM (inactive)
- GI50 (SF-268): > 100 µM (inactive)
- GI50 (UO-31): 67.6 µM (inactive)
- GI50 (SW-620): > 100 µM (inactive)
- GI50 (SNB-19): > 100 µM (inactive)
- GI50 (SK-MEL-2): > 100 µM (inactive)
- GI50 (A549): > 100 µM (inactive)
- GI50 (SK-OV-3): > 100 µM (inactive)
- GI50 (HOP-62): > 100 µM (inactive)
- GI50 (MCF7): > 100 µM (inactive)
- GI50 (HCT-15): > 100 µM
- GI50 (A498): > 100 µM (inactive)
- GI50 (ACHN): > 100 µM (inactive)
- GI50 (KM12): > 100 µM (inactive)
